Numbers after ± are expanded uncertainties.
conditions: Liquid; pulse heating

SMILES	Critical pressure [kPa]	Critical temperature [K]
CCCC[O-].CCCC[O-].CCCC[O-].CCCC[O-].[Ti+4] [titanium(IV) butan-1-olate]	1020 ± 60	719 ± 14
CCCCCCCCCC[O][Ti]([O]CCCCCCCCCC)([O]CCCCCCCCCC)[O]CCCCCCCCCC [tetra(decyloxy)titanium]	610 ± 40	882 ± 18
CCCCCCCCC[O][Ti]([O]CCCCCCCCC)([O]CCCCCCCCC)[O]CCCCCCCCC [tetranonoxytitanium]	630 ± 40	855 ± 18
CCCCC[O][Ti]([O]CCCCC)([O]CCCCC)[O]CCCCC [tetrakis(pentyloxy)titanium]	910 ± 60	751 ± 16
CCCCCCC[O][Ti]([O]CCCCCCC)([O]CCCCCCC)[O]CCCCCCC [tetraheptoxytitanium]	730 ± 40	808 ± 16
CCCCCCCC[O][Ti]([O]CCCCCCCC)([O]CCCCCCCC)[O]CCCCCCCC [tetraoctoxytitanium]	660 ± 40	831 ± 16
CCC[O-].CCC[O-].CCC[O-].CCC[O-].[Ti+4] [tetrapropoxytitanium]	1150 ± 80	685 ± 14
CC[O-].CC[O-].CC[O-].CC[O-].[Ti+4] [tetraethoxytitanium]	1400 ± 80	647 ± 12
CCCCCC[O][Ti]([O]CCCCCC)([O]CCCCCC)[O]CCCCCC [tetrakis(hexyloxy)titanium]	780 ± 40	780 ± 16
